Assay results published in patent US6063789A, “Aminoisoquinolines and aminotheinopyridine derivatives and their use as anti-inflammatory agents” (priority 1996, dated 2000).
Where a name gives a salt, the structure may show the parent alone.

How the values were obtained:
[1] = cited from J Med. Chem., vol 20, No 3, March 1977, pp 449 to 452; cited from earlier work
[2] = target: T1, inducible isoform of the enzyme nitric oxide synthase (NOS) (Mus musculus, UniProt P29477); test: nitric oxide synthetase activity screen (conversion of 3H-L-arginine to 3H-L-citrulline by lysate of induced J774A-1 macrophages); assay type: biochemical; settings: lysate of LPS/IFNg-induced murine macrophage J774A-1 cells; 1 hour at room temperature; read-out: IC50 (the concentration of drug substance which gives 50% enzyme inhibition in the assay)
T1 construct: Nitric oxide synthase is produced by cells in response to interferon-g (IFNg) and lipopolysaccharide (LPS); endogenous in cells; host or cells: J774A-1 murine macrophage cell line, induced with LPS and IFN-gamma; crude cell lysate

| SMILES | IC50 [2] [µM] | antihypertensive activity [1] |
| --- | --- | --- |
| NC1=NCCc2ccccc21 [1-amino-3,4-dihydroisoquinoline] | – | has antihypertensive activity |
| NC1=NC(c2ccccc2)Cc2ccccc21 (centres unmarked) [Example 2, 1-Amino-3-phenyl-3,4-dihydroisoquinoline hydrochloride] | < 25 | – |

Further lines, with some results ahead:

| IC50 [2] [µM] | SMILES | antihypertensive activity [1] |
| --- | --- | --- |
| < 25 | C#CC1Cc2ccccc2C(N)=N1 (centres unmarked) [Example 41, 1-Amino-3-ethynyl-3,4-dihydroisoquinoline hydrochloride] | – |
| < 25 | CC1Cc2ccccc2C(N)=N1 (centres unmarked) [Example 49, 1-Amino-3-methyl-3,4-dihydroisoquinoline hydroiodide] | – |
| < 25 | NC1=NC(c2nccs2)Cc2ccccc21 (centres unmarked) [Example 46, 1-Amino-3-(2-thiazolyl)-3,4-dihydroisoquinoline hydrochloride] | – |
